The record followed here is patent US20250282799A1, “SUBSTITUTED PYRIDO[4,3-d]PYRIMIDINES AS KRAS MODULATORS” (Alterome Therapeutics, Inc., priority 2023, published 2025).

SMILES strings stand for the structures.

A word on the IC50: it is the concentration that gives 50% inhibition. High values mean weaker potency in that assay, low ones greater potency in that assay.

The experiment has as its system KRAS G12V dependent lung adenocarcinoma cell line, NCI-H441. Description: Cellular pERK (Thr202/Tyr204) FRET/HTRF assay. The class given is cell-based. The note with it: Homo sapiens, NCI-H441, cellular pERK (Thr202/Tyr204) HTRF, NCI-H441 cells. Summed up:
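Phospho-ERK1/2 (Thr202/Tyr204) quantified by two-antibody HTRF in lysed NCI-H441 cells. Cells seeded overnight, treated with test compounds for 1 hr at 37 °C against DMSO control, then lysed and detected at room temperature; IC50 obtained by curve fitting.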
On the technique in general: In TR-FRET formats the signal depends on donor and acceptor labels being close together.
Compound `C#Cc1c(F)ccc2cc(N)cc(-c3ncc4c(N5CCOC[C@H]6[C@H](F)[C@H]65)nc(OC[C@@]56CC[C@@H](C)N5C[C@H](F)C6)nc4c3F)c12` [Example 287, 5-Ethynyl-6-fluoro-4-(8-fluoro-2-(((2R,5R,7aS)-2-fluoro-5-methyltetrahydro-1H-pyrrolizin-7a(5H)-yl)methoxy)-4-((1S,7S,8S)-8-fluoro-5-oxa-2-azabicyclo[5.1.0]octan-2-yl)pyrido[4,3-d]pyrimidin-7-yl)naphthalen-2-amine] displayed an IC50 below 0.05 µM.
As to `C#Cc1c(F)ccc2cc(N)cc(-c3ncc4c(N5CCOC[C@H]6[C@H](F)[C@H]65)nc(OC[C@@H]5CCCN5C)nc4c3F)c12` [Example 288, 5-ethynyl-6-fluoro-4-(8-fluoro-4-((1S,7S,8S)-8-fluoro-5-oxa-2-azabicyclo[5.1.0]octan-2-yl)-2-(((S)-1-methylpyrrolidin-2-yl)methoxy)pyrido[4,3-d]pyrimidin-7-yl)naphthalen-2-amine], the IC50 is below 0.05 µM.
In turn, `[2H]C([2H])(Oc1nc(N2CCOC[C@H]3[C@H](F)[C@H]32)c2cnc(-c3cc(N)c(F)c(Cl)c3C(F)(F)F)c(F)c2n1)[C@@]12CCCN1C[C@H](F)C2` [Example 289, 3-chloro-2-fluoro-5-(8-fluoro-4-((1S,7S,8S)-8-fluoro-5-oxa-2-azabicyclo[5.1.0]octan-2-yl)-2-(((2R,7aS)-2-fluorotetrahydro-1H-pyrrolizin-7a(5H)-yl)methoxy-d2)pyrido[4,3-d]pyrimidin-7-yl)-4-(trifluoromethyl)aniline] had an IC50 below 0.05 µM.
In the case of `[2H]C([2H])(Oc1nc(N2CCOC[C@H]3[C@H](Cl)[C@H]32)c2cnc(-c3cccc4ccc(F)c(C#C)c34)c(F)c2n1)[C@@]12CCCN1C[C@H](F)C2` [Example 290, (1S,7S,8S)-8-chloro-2-(7-(8-ethynyl-7-fluoronaphthalen-1-yl)-8-fluoro-2-(((2R,7aS)-2-fluorotetrahydro-1H-pyrrolizin-7a(5H)-yl)methoxy-d2)pyrido[4,3-d]pyrimidin-4-yl)-5-oxa-2-azabicyclo[5.1.0]octane], the IC50 is below 0.05 µM.
Regarding `[2H]C([2H])(Oc1nc(N2CCOC[C@H]3[C@H](F)[C@H]32)c2c(Cl)nc(-c3cc(N)cc4ccc(F)c(C#C)c34)c(F)c2n1)[C@@]12CCCN1C[C@H](F)C2` [Example 291, 4-(5-Chloro-8-fluoro-4-((1S,7S,8S)-8-fluoro-5-oxa-2-azabicyclo[5.1.0]octan-2-yl)-2-(((2R,7aS)-2-fluorotetrahydro-1H-pyrrolizin-7a(5H)-yl)methoxy-d2)pyrido[4,3-d]pyrimidin-7-yl)-5-ethynyl-6-fluoronaphthalen-2-amine], the IC50 is below 0.05 µM.
`[2H]C([2H])(Oc1nc(N2CCCOC3C2C3(Cl)Cl)c2cnc(-c3cc(N)cc4ccc(F)c(C#C)c34)c(F)c2n1)[C@@]12CCCN1C[C@H](F)C2` (stereo partly drawn) [Example 292, 4-(4-(8,8-dichloro-2-oxa-6-azabicyclo[5.1.0]octan-6-yl)-8-fluoro-2-(((2R,7aS)-2-fluorotetrahydro-1H-pyrrolizin-7a(5H)-yl)methoxy-d2)pyrido[4,3-d]pyrimidin-7-yl)-5-ethynyl-6-fluoronaphthalen-2-amine] yielded an IC50 of 0.05 to 0.5 µM.
As for `C#Cc1c(Cl)ccc2cc(O)cc(-c3ncc4c(N5CCOC[C@H]6[C@H](F)[C@H]65)nc(OC[C@@H]5CCCN5C)nc4c3F)c12` [Example 294, 6-chloro-5-ethynyl-4-(8-fluoro-4-((1S,7S,8S)-8-fluoro-5-oxa-2-azabicyclo[5.1.0]octan-2-yl)-2-(((S)-1-methylpyrrolidin-2-yl)methoxy)pyrido[4,3-d]pyrimidin-7-yl)naphthalen-2-ol], the figure is below 0.05 µM.
Turning to `C#Cc1cccc2cc(O)cc(-c3ncc4c(N5CCOC[C@H]6[C@H](F)[C@H]65)nc(OC[C@@H]5CCCN5C)nc4c3F)c12` [Example 295, 5-ethynyl-4-(8-fluoro-4-((1S,7S,8S)-8-fluoro-5-oxa-2-azabicyclo[5.1.0]octan-2-yl)-2-(((S)-1-methylpyrrolidin-2-yl)methoxy)pyrido[4,3-d]pyrimidin-7-yl)naphthalen-2-ol], the IC50 is below 0.05 µM.
The compound `C#Cc1c(Cl)ccc2cc(N)cc(-c3ncc4c(N5CCOC[C@H]6[C@H](F)[C@H]65)nc(OC[C@@H]5CCCN5C)nc4c3F)c12` [Example 296, 6-chloro-5-ethynyl-4-(8-fluoro-4-((1S,7S,8S)-8-fluoro-5-oxa-2-azabicyclo[5.1.0]octan-2-yl)-2-(((S)-1-methylpyrrolidin-2-yl)methoxy)pyrido[4,3-d]pyrimidin-7-yl)naphthalen-2-amine] returned an IC50 below 0.05 µM.
`C#Cc1cccc2cc(N)cc(-c3ncc4c(N5CCOC[C@H]6[C@H](F)[C@H]65)nc(OC[C@@H]5CCCN5C)nc4c3F)c12` [Example 297, 5-ethynyl-4-(8-fluoro-4-((1S,7S,8S)-8-fluoro-5-oxa-2-azabicyclo[5.1.0]octan-2-yl)-2-(((S)-1-methylpyrrolidin-2-yl)methoxy)pyrido[4,3-d]pyrimidin-7-yl)naphthalen-2-amine] showed an IC50 below 0.05 µM.
In turn, `[2H]C([2H])(Oc1nc(N2CCOC[C@H]3[C@H](F)[C@H]32)c2cnc(-c3cc(O)cc(Cl)c3C(F)(F)F)c(F)c2n1)[C@@]12CCCN1C[C@H](F)C2` [Example 298, 3-chloro-5-(8-fluoro-4-((1S,7S,8S)-8-fluoro-5-oxa-2-azabicyclo[5.1.0]octan-2-yl)-2-(((2R,7aS)-2-fluorotetrahydro-1H-pyrrolizin-7a(5H)-yl)methoxy-d2)pyrido[4,3-d]pyrimidin-7-yl)-4-(trifluoromethyl)phenol] gave an IC50 below 0.05 µM.
With `[2H]C([2H])(Oc1nc(N2CCOC[C@H]3[C@H](F)[C@H]32)c2cnc(-c3cc(N)c(F)cc3C(F)(F)F)c(F)c2n1)[C@@]12CCCN1C[C@H](F)C2` [Example 299, 2-fluoro-5-(8-fluoro-4-((1S,7S,8S)-8-fluoro-5-oxa-2-azabicyclo[5.1.0]octan-2-yl)-2-(((2R,7aS)-2-fluorotetrahydro-1H-pyrrolizin-7a(5H)-yl)methoxy-d2)pyrido[4,3-d]pyrimidin-7-yl)-4-(trifluoromethyl)aniline], the IC50 fell in the range of 0.05 to 0.5 µM.
`[2H]C([2H])(Oc1nc(N2CCOC[C@H]3[C@H](F)[C@H]32)c2cnc(-c3cc(O)cc4cccc(C#C)c34)c(F)c2n1)[C@@]12CCCN1C[C@H](F)C2` [Example 300, 5-ethynyl-4-(8-fluoro-4-((1S,7S,8S)-8-fluoro-5-oxa-2-azabicyclo[5.1.0]octan-2-yl)-2-(((2R,7aS)-2-fluorotetrahydro-1H-pyrrolizin-7a(5H)-yl)methoxy-d2)pyrido[4,3-d]pyrimidin-7-yl)naphthalen-2-ol]: the IC50 was below 0.05 µM.
The compound `C#Cc1c(F)ccc2cc(N)cc(-c3ncc4c(N5CCOC[C@@H]6[C@@H](Cl)[C@@H]65)nc(OC[C@@H]5CCCN5C)nc4c3F)c12` [Example 301, 4-(4-((1R,7R,8R)-8-chloro-5-oxa-2-azabicyclo[5.1.0]octan-2-yl)-8-fluoro-2-(((S)-1-methylpyrrolidin-2-yl)methoxy)pyrido[4,3-d]pyrimidin-7-yl)-5-ethynyl-6-fluoronaphthalen-2-amine] came in with an IC50 of 0.05 to 0.5 µM.
In turn, `C#Cc1c(F)ccc2cc(N)cc(-c3ncc4c(N5CCOC[C@H]6[C@H](Cl)[C@H]65)nc(OC[C@@H]5CCCN5C)nc4c3F)c12` [Example 302, 4-(4-((1S,7S,8S)-8-chloro-5-oxa-2-azabicyclo[5.1.0]octan-2-yl)-8-fluoro-2-(((S)-1-methylpyrrolidin-2-yl)methoxy)pyrido[4,3-d]pyrimidin-7-yl)-5-ethynyl-6-fluoronaphthalen-2-amine] gave an IC50 below 0.05 µM.
On to `[2H]C([2H])(Oc1nc(N2CCOC[C@H]3[C@H](F)[C@H]32)c2c(F)nc(-c3cc(N)cc4ccc(F)c(C#C)c34)c(F)c2n1)[C@@]12CCCN1C[C@H](F)C2` [Example 303, 4-(5,8-Difluoro-4-((1S,7S,8S)-8-fluoro-5-oxa-2-azabicyclo[5.1.0]octan-2-yl)-2-(((2R,7aS)-2-fluorotetrahydro-1H-pyrrolizin-7a(5H)-yl)methoxy-d2)pyrido[4,3-d]pyrimidin-7-yl)-5-ethynyl-6-fluoronaphthalen-2-amine], for which the IC50 was below 0.05 µM.
In the case of `[2H]C([2H])(Oc1nc(N2CC[C@@H](C#N)C[C@H]3[C@H](F)[C@H]32)c2cnc(-c3cc(N)cc4ccc(F)c(C#C)c34)c(F)c2n1)[C@@]12CCCN1C[C@H](F)C2` [Example 304, (1S,5S,7R,8S)-2-(7-(3-amino-8-ethynyl-7-fluoronaphthalen-1-yl)-8-fluoro-2-(((2R,7aS)-2-fluorotetrahydro-1H-pyrrolizin-7a(5H)-yl)methoxy-d2)pyrido[4,3-d]pyrimidin-4-yl)-8-fluoro-2-azabicyclo[5.1.0]octane-5-carbonitrile], the IC50 was below 0.05 µM.
Consider `[2H]C([2H])(Oc1nc(N2CC[C@@H](C#N)C[C@@H]3[C@@H](F)[C@@H]32)c2cnc(-c3cc(N)cc4ccc(F)c(C#C)c34)c(F)c2n1)[C@@]12CCCN1C[C@H](F)C2` [Example 305, (1R,5S,7S,8R)-2-(7-(3-amino-8-ethynyl-7-fluoronaphthalen-1-yl)-8-fluoro-2-(((2R,7aS)-2-fluorotetrahydro-1H-pyrrolizin-7a(5H)-yl)methoxy-d2)pyrido[4,3-d]pyrimidin-4-yl)-8-fluoro-2-azabicyclo[5.1.0]octane-5-carbonitrile], for which the IC50 was in the range of 0.05 to 0.5 µM.
In turn, `[2H]C([2H])(Oc1nc(N2CC[C@H](C#N)C[C@H]3[C@H](F)[C@H]32)c2cnc(-c3cc(N)cc4ccc(F)c(C#C)c34)c(F)c2n1)[C@@]12CCCN1C[C@H](F)C2` [Example 306, (1S,5R,7R,8S)-2-(7-(3-amino-8-ethynyl-7-fluoronaphthalen-1-yl)-8-fluoro-2-(((2R,7aS)-2-fluorotetrahydro-1H-pyrrolizin-7a(5H)-yl)methoxy-d2)pyrido[4,3-d]pyrimidin-4-yl)-8-fluoro-2-azabicyclo[5.1.0]octane-5-carbonitrile] returned an IC50 of 0.05 to 0.5 µM.
